pIC50: −log10 of the molar value.
Columns and labels:
[1] = tested on: SH-SY5Y human neuroblastoma cells; experiment: CH50 type analysis of inhibition of C3B cleavage, LDH release end point; format: cell-based; settings: SH-SY5Y cells with undiluted human serum, 37° C. for 3 h, read-out: concentration to inhibit cell lysis by 50% (IC 50)
Protocol: To investigate efficacy of DAS, ATA, AQA and AHA and to inhibit C3B cleavage in SH-SY5Y human neuroblastoma cells, a CH50 type analysis was performed. Lactate dehydrogenase (LDH) release from dead cells was the end point. Reaction mixtures were: SH-SY5Y cells (10^5 cells in 1 ml DMEM/F-12 medium), 250 μL of undiluted human serum and 250 μL of DAS (3 μM), ATA (5 μM), AQA (5 μM), or AHA (5 μM). Mixtures were incubated at 37° C. for 3 h. 100 μl of cell free reaction mixtures were transferred to 96 well plates where they were mixed with a solution containing 15 μl lactate (36 mg/ml in PBS) plus 15 μl p-iodonitrotetrazolium violet (INT, 2 mg/ml in PBS). The enzymatic reaction was started by the addition of 15 μl of NAD^+/diaphorase solution (3 mg/ml NAD^+; 2.3 mg solid/ml diaphorase). After 1 h, optical densities were measured with a Model 450 microplate reader (Bio-Rad Laboratories, Richmond, Calif.) using a 490-nm filter. The amount of LDH released was expressed as a percentage of the value obtained in comparative wells where cells were 100% lysed by 0.1% Triton X-100.
Cell lysis was concentration dependent for each of the components investigated.

[2] = tested on: C5a formation (C5 convertase); experiment: Blockade of C5a formation, western blotting; format: cell-based; settings: SH-SY5Y cells, 10% human serum, zymosan 100 μg/ml, C1 inhibitor 5 μg/ml, 37° C. 1 h
Protocol: To verify that each of the inhibitors was acting by inhibiting formation of C5 convertase, western blotting experiments were carried out. Results are shown in illustrated in FIG. 4. SH-SY5Y human neuroblastoma cells (2×10^5 cells in 1 ml DMEM/F-12 medium including 10% human serum) were incubated with zymosan (100 μg/ml) in 24 well plates at 37° C. for 1 h with or without DAS (3 μM), ATA (5 μM), AQA (5 μM), or AHA (5 μM). To inhibit any classical pathway activation, C1 inhibitor (5 μg/ml) was added. Supernatants were obtained by centrifugation at 4000 g for 30 min through 30 K-filters (Amicon® Ultra-15, 30,000 NMWL, Millipore, Billerica, Mass.). The filtrates were dried and added to the loading buffer for SDS-PAGE (50-mM Tris (pH 6.8), 0.1% SDS, 0.1% bromophenol blue, and 10% glycerol). Proteins were separated in 10% polyacrylamide gels at 70V for 6 h. The proteins were then transferred to polyvinylidene difluoride (PVDF) membranes (Bio-Rad, CA) at 30 mA for 2 hours. After washing with PBS-T, the membranes were treated with a mouse monoclonal C5/C5a antibody (Abcam, Cambridge Mass., 1/2000) for 15 hours at 4° C. The membranes were then treated with an appropriate HRP-conjugated anti-mouse IgG (A3682, 1/3,000; Sigma) for 3 hours at room temperature. The bands were visualized with an enhanced chemiluminescent system and exposure to photographic film (Hyperfilm ECL; Amersham Pharmacia Biotech, Little Chalfont, UK).

Row | pIC50 [1] | Compound | C5a formation (western blot) ([2]; 3 μM) | C5a formation (western blot) ([2]; 5 μM)
1 | 6.26 | O=C(O)C1=CC(=C(c2ccc(O)c(C(=O)O)c2)c2ccc(O)c(C(=O)O)c2)C=CC1=O [ATA, aurin tricarboxylic acid] |  | 
2 | 6.27 | aurin hexacarboxylic acid [AHA] |  | C5a was no longer formed
3 | 6.28 | aurin quadracarboxylic acid [AQA] |  | C5a was no longer formed

Row | Compound | pIC50 [1] | C5a formation (western blot) ([2]; 3 μM) | C5a formation (western blot) ([2]; 5 μM)
4 | CC(=O)Oc1ccc(Cc2ccc(OC(C)=O)c(C(=O)O)c2)cc1C(=O)O [DAS, 5,5′-methylenebis(2-acetoxybenzoic) acid] | 6.96 | C5a was no longer formed | 

From patent US11013750B2, “Methods for treating and preventing nociceptive pain” (Aurin Biotech Inc., priority 2017, dated 2021)
